According to patent publication US8188096B2, “Protein kinase targeted therapeutics” (Northwestern University, priority 2006, dated 2012):

Columns and labels:
CK1δ = CK1δ (Homo sapiens, UniProt P48730); test: in vitro phosphorylation of a standard protein or peptide substrate by purified kinase; assay type: biochemical; details: 100 mM ATP, increasing concentrations of compound, percent of maximal enzyme activity (FIG. 2)
[1] = system: LPS-induced serum cytokine levels; test: LPS-induced serum cytokine levels in acute inflammation mouse model (ELISA); assay type: in vivo; details: 25 mg/kg oral gavage, LPS 10 mg/kg i.p. 30 minutes later, serum after 6 hr, ELISA (FIG. 3)
[2] = metabolic stability in human liver microsome screen; assay type: in vitro ADME; details: human liver microsome screen (FIG. 4C)
[3] = liver histological toxicity screen after chronic administration; assay type: in vivo; details: after chronic administration (FIG. 4B)
[4] = plasma levels after oral administration (oral bioavailability); assay type: in vivo; details: plasma levels after oral administration (FIG. 4A)

Sequence of CK1δ (P48730 whole entry): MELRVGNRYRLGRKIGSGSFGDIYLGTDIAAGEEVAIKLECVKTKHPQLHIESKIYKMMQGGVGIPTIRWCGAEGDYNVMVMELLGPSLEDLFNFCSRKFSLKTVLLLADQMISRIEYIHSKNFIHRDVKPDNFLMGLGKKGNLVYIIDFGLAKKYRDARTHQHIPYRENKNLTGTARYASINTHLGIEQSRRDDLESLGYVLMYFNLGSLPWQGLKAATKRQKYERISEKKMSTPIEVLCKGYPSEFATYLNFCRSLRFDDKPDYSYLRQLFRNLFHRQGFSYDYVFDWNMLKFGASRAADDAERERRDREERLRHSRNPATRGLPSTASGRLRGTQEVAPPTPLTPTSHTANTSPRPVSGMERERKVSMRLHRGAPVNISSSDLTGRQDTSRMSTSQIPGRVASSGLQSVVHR

c1ccc(-c2nnc(N3CCN(c4ncccn4)CC3)cc2-c2ccncc2)cc1 [MW01-2-069aSRM]
inhibition of CK1δ enzyme activity (CK1δ): inhibit in vitro p38 MAPK and CK1δ enzyme activity in a concentration dependent manner | inhibition of LPS-induced serum cytokine levels [1]: inhibit LPS-induced serum cytokine levels in vivo | metabolic stability [2]: metabolic stability is demonstrated | liver histological toxicity [3]: no liver histological toxicity | oral bioavailability [4]: oral bioavailability, safety and metabolic stability is demonstrated
